Experimental findings from patent US9611278B2 (Merck Sharp & Dohme Corp., priority 2013, dated 2017) are described below.

Test [1] has as its system Spontaneously hypertensive rats (SHR). In words: Acute Efficacy in Spontaneously Hypertensive Rats (SHR). Format: in vivo, rat. Conditions: single oral dose. The source says: Spontaneously hypertensive rats (SHR, male, Charles River) were implanted with DSI TA11PA-C40 telemetry device (Data Sciences, Inc., St. Paul, Minn.) under isoflurane or ketamine/metomidine anesthesia. The telemetry unit catheter was inserted into the descending aorta via the femoral artery and the telemetry device was implanted subcutaneously in the left flank area. Animals were allowed to recover from surgery for 14 days before the start of any studies. Blood pressure, heart rate, and activity signals from conscious, freely moving rats were recorded continuously for 30 seconds every 10 min. On the day prior to administration of compound, a single oral dose of vehicle (10% transcutol/20% Cremophor/70% water) was administered to all animals to establish baseline control data. The blood pressure lowering efficacy of compound (PO) or vehicle was evaluated following a single oral gavage. Data were collected as hourly averages, and changes in blood pressure were calculated by subtracting control baseline data on an hourly basis. Animals were maintained on normal diet with a 12 hour light-dark cycle.
Maximum peak decreases of systolic blood pressure (SBP) in SHR at a particular P.O. dose (mpk milligrams per kilogram) for the following representative compounds are provided in Table 9. Category A=SBP in SHRs <15 mmHg; Category B=SBP in SHRs 15-25 mmHg; Category C=SBP in SHRs >25 mmHg

Test [2] deals with T1, sGC α1/β1 heterodimer stably expressed in CHO-K1 cells (CHO-K1/sGC) (Homo sapiens, UniProt Q02108+Q02153).
T1 construct: expressed in transfected cells
T1 sequence (Q02108 1-690): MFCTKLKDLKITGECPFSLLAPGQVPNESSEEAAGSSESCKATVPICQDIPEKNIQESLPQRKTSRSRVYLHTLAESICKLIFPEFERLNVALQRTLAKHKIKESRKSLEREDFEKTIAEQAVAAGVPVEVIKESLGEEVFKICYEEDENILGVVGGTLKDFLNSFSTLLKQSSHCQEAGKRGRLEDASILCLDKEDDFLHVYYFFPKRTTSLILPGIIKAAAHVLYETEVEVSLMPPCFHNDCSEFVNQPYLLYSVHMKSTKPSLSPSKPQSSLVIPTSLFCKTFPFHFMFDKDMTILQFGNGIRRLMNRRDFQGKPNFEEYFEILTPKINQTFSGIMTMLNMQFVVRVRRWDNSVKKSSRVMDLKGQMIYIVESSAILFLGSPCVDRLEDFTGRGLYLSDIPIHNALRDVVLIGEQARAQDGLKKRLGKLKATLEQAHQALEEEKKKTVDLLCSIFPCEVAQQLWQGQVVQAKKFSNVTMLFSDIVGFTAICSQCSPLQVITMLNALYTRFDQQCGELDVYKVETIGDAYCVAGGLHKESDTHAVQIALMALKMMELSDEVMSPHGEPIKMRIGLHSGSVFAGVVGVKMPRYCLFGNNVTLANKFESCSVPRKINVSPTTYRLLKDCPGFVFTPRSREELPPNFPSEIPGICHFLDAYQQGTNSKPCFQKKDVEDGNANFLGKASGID
T1 sequence (Q02153 1-619): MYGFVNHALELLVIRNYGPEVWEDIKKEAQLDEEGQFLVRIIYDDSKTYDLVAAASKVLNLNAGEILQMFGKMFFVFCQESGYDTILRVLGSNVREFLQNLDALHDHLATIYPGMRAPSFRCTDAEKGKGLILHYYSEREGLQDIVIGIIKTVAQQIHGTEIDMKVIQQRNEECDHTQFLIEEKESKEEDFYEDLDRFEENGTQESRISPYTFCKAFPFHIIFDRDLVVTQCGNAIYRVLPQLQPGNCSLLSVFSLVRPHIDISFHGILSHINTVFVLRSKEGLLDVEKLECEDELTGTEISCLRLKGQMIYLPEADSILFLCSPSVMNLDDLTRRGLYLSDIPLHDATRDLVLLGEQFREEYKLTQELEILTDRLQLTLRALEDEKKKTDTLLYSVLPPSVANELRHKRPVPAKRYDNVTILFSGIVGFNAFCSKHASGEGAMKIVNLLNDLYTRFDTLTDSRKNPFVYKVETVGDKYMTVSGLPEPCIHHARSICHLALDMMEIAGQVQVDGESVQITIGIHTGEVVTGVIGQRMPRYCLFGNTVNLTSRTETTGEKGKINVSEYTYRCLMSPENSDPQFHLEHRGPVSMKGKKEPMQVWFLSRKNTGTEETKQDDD
The experiment in a line: Cell-based sGC Functional Assay (CASA Assay). Conditions: for Emax: CHO-K1, activation as percentage of maximum cGMP production of Compound A (set to 100%), read-out: % Act.; for EC50: inflection point of cGMP generation in CHO-K1/sGC cells, 4P fit, 1 hr at 37° C., read-out: IP. In outline: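 CHO-K1 cells stably expressing human sGC α1/β1 were incubated with compound for 1 h at 37 °C in buffer with 0.5 mM IBMX and 2.5% DMSO, with or without 1 μM DETA-NO. Intracellular cGMP was read by HTRF and expressed as percentage of maximal activation by reference activator Compound A. Values came from a 4-parameter fit.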

As to `[2H]C([2H])([2H])n1ncc2c(-c3nc(N)c4c(n3)NC(=O)C4(c3cn(C)nn3)C3CC3)nc(CCC(F)(F)C(F)(F)F)nc21` (single isomer, unassigned) [Example 54, 4-Amino-5-cyclopropyl-5-(1-methyl-1H-1,2,3-triazol-4-yl)-2-(1-(methyl-d3)-6-(3,3,4,4,4-pentafluorobutyl)-1H-pyrazolo[3,4-d]pyrimidin-4-yl)-5,7-dihydro-6H-pyrrolo[2,3-d]pyrimidin-6-one], the “Category: maximum peak decrease of systolic blood pressure (SBP) in SHR” value (“Category: maximum peak decrease” for short) in test [1] (P.O. 1 mpk) was “B (Category B=SBP in SHRs 15-25 mmHg)”. In test [2], the Emax was 93% and the EC50 came out at 229 nM.

Turning to `Cn1cc(C2(C3CC3)C(=O)Nc3nc(-c4nc(CCC(F)(F)C(F)(F)F)nc5c4cnn5C)nc(N)c32)nn1` (single isomer, unassigned) [Example 55, 4-Amino-5-cyclopropyl-5-(1-methyl-1H-1,2,3-triazol-4-yl)-2-(1-methyl-6-(3,3,4,4,4-pentafluorobutyl)-1H-pyrazolo[3,4-d]pyrimidin-4-yl)-5,7-dihydro-6H-pyrrolo[2,3-d]pyrimidin-6-one], in test [1] (P.O. 1 mpk), the “Category: maximum peak decrease” value is “B (Category B=SBP in SHRs 15-25 mmHg)”. In test [2], the Emax was found to be 118% and the EC50 came to 251 nM.

On to `CC(C)n1cc(C2(C)C(=O)Nc3nc(-c4nc(CCC(F)(F)C(F)(F)F)nc5c4cnn5C)nc(N)c32)nn1` (single isomer, unassigned) [Example 56, 4-Amino-5-(1-isopropyl-1H-1,2,3-triazol-4-yl)-5-methyl-2-(1-methyl-6-(3,3,4,4,4-pentafluorobutyl)-1H-pyrazolo[3,4-d]pyrimidin-4-yl)-5,7-dihydro-6H-pyrrolo[2,3-d]pyrimidin-6-one], for which the “Category: maximum peak decrease” value in test [1] (P.O. 1 mpk) was “C (Category C=SBP in SHRs >25 mmHg)”. Further, in test [2], the Emax came to 126% and the EC50 is 1020 nM.

On to `CCn1cc(C2(CC)C(=O)Nc3nc(-c4nc(CCC(F)(F)C(F)(F)F)nc5c4cnn5C)nc(N)c32)nn1` (single isomer, unassigned) [Example 66, 4-Amino-5-ethyl-5-(1-ethyl-1H-1,2,3-triazol-4-yl)-2-(1-methyl-6-(3,3,4,4,4-pentafluorobutyl)-1H-pyrazolo[3,4-d]pyrimidin-4-yl)-5,7-dihydro-6H-pyrrolo[2,3-d]pyrimidin-6-one], for which the “Category: maximum peak decrease” value in test [1] (P.O. 1 mpk) is reported as “B (Category B=SBP in SHRs 15-25 mmHg)”. Besides, in test [2], the Emax worked out at 108% and the EC50 is 327 nM.

For `CCn1cc(C2(C)C(=O)Nc3nc(-c4nc(CCC(F)(F)C(F)(F)F)nc5c4cnn5C)nc(N)c32)nn1` (single isomer, unassigned) [Example 69, 4-Amino-5-(1-ethyl-1H-1,2,3-triazol-4-yl)-5-methyl-2-(1-methyl-6-(3,3,4,4,4-pentafluorobutyl)-1H-pyrazolo[3,4-d]pyrimidin-4-yl)-5,7-dihydro-6H-pyrrolo[2,3-d]pyrimidin-6-one], in test [1] (P.O. 1 mpk), the “Category: maximum peak decrease” value is listed as “C (Category C=SBP in SHRs >25 mmHg)”. In addition, in test [2], the Emax stood at 105% and the EC50 is 259 nM.

As to `Cn1ncc2c(-c3nc(N)c4c(n3)NC(=O)C4(C)n3cnnn3)nc(CCC(F)(F)C(F)(F)F)nc21` (single isomer, unassigned) [Example 84, 4-Amino-5-methyl-2-(1-methyl-6-(3,3,4,4,4-pentafluorobutyl)-1H-pyrazolo[3,4-d]pyrimidin-4-yl)-5-(1H-tetrazol-1-yl)-5,7-dihydro-6H-pyrrolo[2,3-d]pyrimidin-6-one], the “Category: maximum peak decrease” value in test [1] (P.O. 1 mpk) is “A (Category A=SBP in SHRs <15 mmHg)”. Moreover, in test [2], the Emax came out at 111% and the EC50 is 365 nM.

With `Cn1ncc2c(-c3nc(N)c4c(n3)NC(=O)C4(C)c3ccc(F)cn3)nc(CCC(F)(F)C(F)(F)F)nc21` (stereo not shown) [Example 1, 4-Amino-5-(5-fluoropyridin-2-yl)-5-methyl-2-(1-methyl-6-(3,3,4,4,4-pentafluorobutyl)-1H-pyrazolo[3,4-d]pyrimidin-4-yl)-5H-pyrrolo[2,3-d]pyrimidin-6(7H)-one], the “Category: maximum peak decrease” value in test [1] (P.O. 0.3 mpk) is “C (Category C=SBP in SHRs >25 mmHg)”. Moreover, in test [2], the Emax was found to be 123% and the EC50 is 55 nM.

Take `Cn1ncc2c(-c3nc(N)c4c(n3)NC(=O)C4(C)c3ccc(F)cn3)nc(CC3CC(F)(F)C3)nc21` (stereo not shown) [Example 3, 4-Amino-2-(6-((3,3-difluorocyclobutyl)methyl)-1-methyl-1H-pyrazolo[3,4-d]pyrimidin-4-yl)-5-(5-fluoropyridin-2-yl)-5-methyl-5,7-dihydro-6H-pyrrolo[2,3-d]pyrimidin-6-one]: the “Category: maximum peak decrease” value in test [1] (P.O. 0.3 mpk) was “C (Category C=SBP in SHRs >25 mmHg)”. Further, in test [2], the Emax turned out to be 117% and the EC50 was found to be 104 nM.

`Cn1ncc2c(-c3nc(N)c4c(n3)NC(=O)C4(C)c3ccc(F)cn3)nc(CCCC(F)(F)F)nc21` (stereo not shown) [Example 4, 4-Amino-5-(5-fluoropyridin-2-yl)-5-methyl-2-(1-methyl-6-(4,4,4-trifluorobutyl)-1H-pyrazolo[3,4-d]pyrimidin-4-yl)-5H-pyrrolo[2,3-d]pyrimidin-6(7H)-one]: in test [1] (P.O. 0.3 mpk), the “Category: maximum peak decrease” value was “B (Category B=SBP in SHRs 15-25 mmHg)”. In test [2], the Emax was 115% and the EC50 was 54 nM.

Take `[2H]C([2H])([2H])n1ncc2c(-c3nc(N)c4c(n3)NC(=O)C4(C)c3noc(C)n3)nc(CCC(F)(F)C(F)(F)F)nc21` (stereo not shown) [Example 19, 4-Amino-5-methyl-5-(5-methyl-1,2,4-oxadiazol-3-yl)-2-(1-(methyl-d3)-6-(3,3,4,4,4-pentafluorobutyl)-1H-pyrazolo[3,4-d]pyrimidin-4-yl)-5,7-dihydro-6H-pyrrolo[2,3-d]pyrimidin-6-one]: in test [1] (P.O. 1 mpk), the “Category: maximum peak decrease” value is “C (Category C=SBP in SHRs >25 mmHg)”. Moreover, in test [2], the Emax turned out to be 157% and the EC50 amounted to 225 nM.

As for `[2H]C([2H])([2H])n1ncc2c(-c3nc(N)c4c(n3)NC(=O)C4(c3nnc(C)o3)C3CC3)nc(CCC(F)(F)C(F)(F)F)nc21` (stereo not shown) [Example 40, 4-Amino-5-cyclopropyl-5-(5-methyl-1,3,4-oxadiazol-2-yl)-2-(1-(methyl-d3)-6-(3,3,4,4,4-pentafluorobutyl)-1H-pyrazolo[3,4-d]pyrimidin-4-yl)-5,7-dihydro-6H-pyrrolo[2,3-d]pyrimidin-6-one], the “Category: maximum peak decrease” value in test [1] (P.O. 1 mpk) was “C (Category C=SBP in SHRs >25 mmHg)”.
